Source: patent US20120093809A1, “USE OF ALKANOYL L-CARNITINE IN COMBINATION WITH CHEMOTHERAPEUTIC AGENTS FOR THE TREATMENT OF NEOPLASMS” (priority 2008, published 2012)
pIC50: −log10 of the molar value.

Key:
[1] = test system: SJSA-1 (with amplification of mdm2) osteosarcoma cells; experiment: Antiproliferative activity of cisplatin with and without acetyl L-carnitine, MTT assay; type: cell-based; details: acetyl L-carnitine 10 mM where combined, 72 h of exposure followed by 72 h of recovery, 0.1% FBS
Method: (§1) Moreover, the activity was also evaluated on two prostate tumor cell lines with p53 wild-type (LnCaP) or p53 null (PC3). […] The number of surviving cells was finally determined by the tetrazolium salt (MTT) assay, as described by Hansen M B et al. (Re-examination and further development of a precise and rapid dye method for measuring cell growth/cell kill. J. Immunol. Methods 119: 203-10, 1989). […] In this case the statistical comparison was performed by Mann-Whitney test.
(§2) To test the effects of the compounds on cell growth, tumor cells were seeded in 96-well tissue culture plates at approximately 10% confluence and were allowed to attach and recover for at least 24 h. Tumor cells were exposed to compounds for 72 h or 6 days in 0.1% FBS at 37° C., then medium culture was removed and 100 μL/well of medium were added containing 25 μL/well of a solution 5 mg/mL MTT (final 1 mg/mL). Plates were kept at. 37° C. in incubator with 5% CO2 for 2 h for the formation of blu chrystals. The supernatant was removed and 100 μL/well of lysant medium were added. Plates were kept under stirring for 60 min. The survival cell was determined as optical density by a Multiskan spectrofluorimeter at 570 nm.

[2] = test system: NCI-H1650 non-small cell lung carcinoma cells; experiment: as above; type: cell-based; details: acetyl L-carnitine 10 mM where combined, 6 days of exposure, 0.1% FBS
Method: as §1, §2

[3] = test system: LnCaP prostate carcinoma cells (p53 wild-type); experiment: as above; type: cell-based; details: acetyl L-carnitine 10 mM where combined, 6 days of exposure, 0.1% FBS
Method: as §1, §2

[4] = test system: PC3 prostate carcinoma cells (p53 null); experiment: as above; type: cell-based; details: acetyl L-carnitine 10 mM where combined, 72 h of exposure, 0.1% FBS
Method: as §1, §2

lung metastases = details: cisplatin alone, 6 to 8 mg/kg; cited from earlier work
[5] = test system: A2780/Dx multidrug-resistant ovarian carcinoma cells; experiment: Antiproliferative activity of cisplatin with and without acetyl L-carnitine, MTT assay; type: cell-based; details: acetyl L-carnitine 10 mM where combined, 6 days of exposure, 0.1% FBS
Method: as §1
as §2, with “Tumor cells were exposed to compounds for 72 h or 6 days in 0.1% FBS at 37° C., then medium culture was removed and 100 μL/well of medium were added containing 25 μL/well of a solution 5 mg/mL MTT (final 1 mg/mL).” left out

[6] = test system: NCI-H460 non-small cell lung carcinoma cells; experiment: as above; type: cell-based; details: acetyl L-carnitine 10 mM where combined, 72H of exposure, 0.1% FBS
Method: as §1
as §2, with “Tumor cells were exposed to compounds for 72 h or 6 days in 0.1% FBS at 37° C., then medium culture was removed and 100 μL/well of medium were added containing 25 μL/well of a solution 5 mg/mL MTT (final 1 mg/mL).” left out

[7] = test system: NCI-H1650 non-small cell lung carcinoma; experiment: Antitumor activity of acetyl L-carnitine in combination with cisplatin, s.c. xenograft; type: in vivo
Method: Treatments started eleven days after cancer injection.
(§3) When tumors reached a volume of about 1 cm3, mice were sacrificed by cervical dislocation.
(§4) Body weight recording was carried out through the study.

NCI-H460 NSCLC = experiment: Antitumor activity of cisplatin in combination with acetyl L-carnitine, s.c. xenograft; type: in vivo; details: cisplatin ip q3-4dx5, alone or with acetyl L-carnitine 200 mg/kg p.o. qdx5/wx4w
Method: (§5) Treatments started three days after tumor injection.
Mice were subdivided (12 mice/group) in the following experimental groups:
Acetyl L-carnitine was administered immediately before the drug given in combination.
(§6) To evaluate the antitumor activity, tumor diameters were measured with a Vernier caliper.
(§7) When tumors reached a volume of 1-2 cm^3, mice were sacrificed by cervical dislocation. Body weight recording was carried out through the study and mortality was noted.

[8] = test system: NCI-H460 non-small cell lung carcinoma; experiment: Antitumor activity of cisplatin in combination with L-carnitine, s.c. xenograft; type: in vivo; details: cisplatin 4 mg/kg ip, alone or with L-carnitine 200 mg/kg po
Method: as §5, §6, §7

[9] = test system: A549 non-small cell lung carcinoma; experiment: Antitumor activity of acetyl L-carnitine in combination with cisplatin, s.c. xenograft; type: in vivo
Method: Treatments started six days after cancer injection.
as §3, §4

[10] = test system: IGROV-1 ovarian carcinoma; type: in vivo, CD1 nude mice; details: day +41; cisplatin 4 mg/kg ip, alone or with acetyl L-carnitine 200 mg/kg po
Method: (§8) Treatments started three days after cancer injection.
When tumors reached a volume of about 1-2 cm^3, mice were sacrificed by cervical dislocation.
as §4

[11] = test system: SW620 colon carcinoma with mutant p53; type: in vivo, CD1 nude mice; details: day +20; cisplatin 4 mg/kg ip, alone or with acetyl L-carnitine 200 mg/kg po
Method: as §8
When tumors reached a volume of about 1 cm^3, mice were sacrificed by cervical dislocation.
as §4

[12] = day +41, cisplatin 4 mg/kg ip, alone or with acetyl L-carnitine 200 mg/kg po
[13] = cisplatin 4 mg/kg ip, alone or with acetyl L-carnitine 200 mg/kg po

N.N.[Cl][Pt][Cl] [Cisplatin]
pIC50 ([1]; IC50±SD of cisplatin): 5.49 | CELL SURVIVAL % ± SE ([1]; cisplatin 312 nM): 100 ± 3.0% | CELL SURVIVAL % ± SE ([1]; cisplatin 625 nM): 90 ± 6.0% | CELL SURVIVAL % ± SE ([1]; cisplatin 1250 nM): 90 ± 2.0% | CELL SURVIVAL % ± SE ([1]; cisplatin 2500 nM): 64 ± 2.0% | CELL SURVIVAL % ± SE ([1]; cisplatin 5000 nM): 35 ± 1.0% | pIC50 ([2]; IC50±SD of cisplatin): 5.82 | CELL SURVIVAL % ± SE ([2]; cisplatin 78 nM): 98 ± 4.0% | CELL SURVIVAL % ± SE ([2]; cisplatin 312 nM): 92 ± 2.0% | CELL SURVIVAL % ± SE ([2]; cisplatin 625 nM): 81 ± 3.0% | CELL SURVIVAL % ± SE ([2]; cisplatin […]): 95 ± 1.0% | pIC50 ([3]; IC50±SD of cisplatin): 5.11 | CELL SURVIVAL % ± SE ([3]; cisplatin 1250 nM): 92 ± 2% | CELL SURVIVAL % ± SE ([3]; cisplatin 2500 nM): 74 ± 5% | CELL SURVIVAL % ± SE ([3]; cisplatin 5000 nM): 67 ± 2% | CELL SURVIVAL % ± SE ([3]; cisplatin 10000 nM): 51 ± 3% | pIC50 ([4]; IC50±SD of cisplatin): 5.33 | CELL SURVIVAL % ± SE ([4]; cisplatin 625 nM): 97% | CELL SURVIVAL % ± SE ([4]; cisplatin 1250 nM): 89% | CELL SURVIVAL % ± SE ([4]; cisplatin 2500 nM): 76% | CELL SURVIVAL % ± SE ([4]; cisplatin 5000 nM): 52% | CELL SURVIVAL % ± SE ([4]; cisplatin 10000 nM): 26% | number of lung metastases (lung metastases): significantly reduced the number of lung metastases | pIC50 ([5]; IC50±SD of cisplatin): 6.14 | CELL SURVIVAL % ± SE ([5]; cisplatin 625 nM): 62 ± 2.0% | CELL SURVIVAL % ± SE ([5]; cisplatin 1250 nM): 40 ± 1.0% | CELL SURVIVAL % ± SE ([5]; cisplatin 2500 nM): 31 ± 1.0% | CELL SURVIVAL % ± SE ([5]; cisplatin […]): 86 ± 2.0% | pIC50 ([6]; IC50±SD of cisplatin): 6.40 | CELL SURVIVAL % ± SE ([6]; cisplatin 39 nM): 96 ± 2.4% | CELL SURVIVAL % ± SE ([6]; cisplatin 78 nM): 93 ± 4.0% | CELL SURVIVAL % ± SE ([6]; cisplatin 312 nM): 61 ± 2.0% | CELL SURVIVAL % ± SE ([6]; cisplatin 625 nM): 39 ± 1.0% | CELL SURVIVAL % ± SE ([6]; cisplatin 1250 nM): 24 ± 0.7% | CELL SURVIVAL % ± SE ([6]; cisplatin […]): 82 ± 2.0% | BWL % max ([7]; cisplatin 4 mg/kg ip q3-4d/wx3w, alone or with acetyl L-carnitine 200 mg/kg po qdx5/wx5w): 10% | TV ± SE +41 [7, 12]: 206 ± 32 mm^3 | TVI % ± SE +41 [7, 12]: 23 ± 4% | LCK (1 cm^3) (NCI-H460 NSCLC; DT = 2.6 days): 0.6 | TVI % +31 (NCI-H460 NSCLC; day +31): 41% | TV ± SE +32 ([8]; day +32): 345 ± 90 mm^3 | Leth. ([8]; dead/total mice): 0/9 | BWL % max ([9]; cisplatin 4 mg/kg ip q3-4d/wx3w, alone or with acetyl L-carnitine 200 mg/kg po qdx5/wx4w): 8% | TV ± SE [9, 13]: 208 ± 55 mm^3 | TVI % ± SE [9, 13]: 49 ± 12% | TV ± SE +41 [10]: 231 ± 55 mm^3 | TVI % ± SE +41 [10]: 35 ± 8% | TV ± SE +20 [11]: 244 ± 45 mm^3 | TVI % ± SE +20 [11]: 55 ± 10%
